Like-named read-outs stand apart in the source and are kept apart here. Each block holds one compound with its values, some of them ahead of it.
How the values were obtained:
[1] = tested on: serum polyclonal antirhamnose antibodies (human IgG); assay: BLI affinity of rhamnose probes for polyclonal human IgG; assay type: binding; conditions: for kon: anti-rhamnose assumed 3% of total IgG; for koff: dissociation in 100 mM L-rhamnose
Description: We began by synthesizing antirhamnose affinity probes consisting of α-O/α-S and β-S rhamnose glycosides functionalized with a propargyl group for CuAAC-mediated coupling to a biotin TBD (compounds 1–3, Figure 1A and Scheme S1). This enabled rhamnose immobilization onto streptavidin surfaces and subsequent antibody binding studies. We used biolayer interferometry (BLI) to estimate and compare the apparent affinity of serum polyclonal antirhamnose antibodies for each rhamnose affinity probe (Figure 1B). […] Next, biosensors were submerged in a buffer containing free rhamnose competitor, and dissociation kinetics were measured (Figure 1B, Dissociation). The dissociation buffer contained 100 mM rhamnose competitor to inhibit avidity-based antibody rebinding, which interferes with koff measurements. […] In the context of proximity-inducing molecule development, this low monovalent sugar-binding affinity will ultimately limit ternary complex formation. […] The confirmation of low affinity binding also supports why multivalency has been historically required to efficiently engage antirhamnose antibodies for tumor-immune proximity induction and engage sugar binding receptors in general.
Figure 1 Affinity determination of endogenous and monoclonal antibody sources for L-rhamnose glycoside variants. A. Chemical structures of rhamnose affinity probes. B/C. Approximation of antirhamnose antibody binding affinity for probes 1–3 using biolayer interferometry. B. Purified human serum IgG is used to estimate the affinity of endogenous polyclonal serum antirhamnose antibodies for each affinity probe 1–3. C. Monoclonal anti-23F antibody is used to estimate the potential affinity of vaccine-induced antirhamnose antibodies for each affinity probe 1–3. […] Association was monitored for 900 (B) or 600 (C) seconds. The loaded biosensor probe was then dipped into a dissociation solution of 100 mM L-rhamnose for 600 s. Association curves were fit to a two-phase association model in GraphPad Prism using Kfast to calculate kon. Dissociation curves were similarly fit to a two-phase decay using Kfast to calculate koff. TEXT PRINTED IN THE PICTURE: (B) no label printed: Polyclonal Human IgG: Kd ≈ 7 x10^-5 M | (C) no label printed: Monoclonal Anti-23F: Kd ≈ 6 x10^-6 M DOUBTS OF THE COPYIST ABOUT THIS PICTURE: Panel B, Kd ≈ 7 x10^-5 M: printed once in the plot with no link to a single curve, so it is unclear which of (1) α–O, (2) α–S and (3) β–S it applies to / Panel C, Kd ≈ 6 x10^-6 M: printed once in the plot with no link to a single curve, so it is unclear which of (1) α–O, (2) α–S and (3) β–S it applies to […]
General Notes and Materials […]
Biolayer Interferometry (BLI) General notes and Materials
IgG from human serum was purchased from Innovative Research (IHUI GGAP1000MG). Anti -23F antibody was purchased fr om Creative Biolabs (PABX -173). Biolayer Interferometry (BLI) was conducted using a ForteBio Octet Red96, and streptavidin biosensors (Sartorius - 18-5019) or ProG biosensors (Sartorius – 18-5082). For quench, a 5% skim milk (Nestle Carnation Instant Skim Milk) solution in 1X kinetics buffer was used. The instrument was set at 25 °C, with 1000 RPM, and acquisition rate of 5 Hz.
Each well of a black well plate (Greiner Bio -One - 655086) was filled with 200 µL of appropriate solution.
Dissociation buffer was comprised of L-rhamnose (100 mM, Sigma Aldrich – R3875-10G) in 1X kinetics buffer to reduce avidity contribution to dissociation rate (koff).
SDS-PAGE General notes and Materials […]
Carboxyfluorescein was purchased from Sigma Aldrich (21877 -5G-F). IgG from human serum was purchased from Innovative Research (IHUIGGAP1000MG). Anti -23F antibody was purchased from Creative Biolabs (PABX -173). Laemellie Buffer (2x) was purchased from Sigma Aldrich (S3401 -10VL).
Pre-cast Tris-Glycine Gels (4-20%) were purchased from Fisher Scientific (XP04202BOX). Standard protein ladder was purchased from Bio Rad (1610363). […]

[2] = tested on: human serum antirhamnose antibody (IgG and IgM); assay: ELISA covalent engagement of serum anti-rhamnose antibody; assay type: binding; conditions: 2 μM compound, 2% human serum, 48 h; rhamnose 100 mM added after incubation
Method: Figure 2 Capacity of Rha-cARMs to specifically covalently engage monoclonal anti-23F and serum anti-rhamnose. A. Chemical structures of the molecules investigated. B. Assessment of covalent vs noncovalent (cARM/ARM) engagement of human serum antirhamnose antibody via an ELISA assay. Each ARM/cARM (2 μM) was incubated with 2% human serum for 48 h and subsequently incubated directly on a streptavidin ELISA plate. Recruitment was evaluated by the addition of anti-IgG or anti-IgM HRP-conjugated secondary antibody with subsequent chromogenic substrate addition. “Comp” represents the addition of competitor rhamnose (500 mM) during 48 h of incubation. “Quench” refers to the addition of competitor rhamnose (100 mM) prior to ELISA plate binding but after 48 h of reaction incubation. C. SDS-PAGE fluorescent image of anti-23F antibody covalently labeled by fluorophore substituted Rha-cARMs (6–8). A representative protein stain associated with each gel is included on the left side of the fluorescent gel images. In all cases, 2 μM anti-23F antibody is incubated with 4 μM cARM (2 equiv) for 24 h in PBS spiked with 10% human serum. Where noted, L-rhamnose (100 mM, Rha. C) was used during incubation as a competitor for specific covalent labeling. Where noted, a free fluoresceine competitor (2.5 mM, Fluor. C) was used to distinguish fluorescein-promoted covalent labeling from rhamnose-promoted. The darker background in gels corresponding to cARM 6, 7 is attributed to the differing capacity of free cARM-fluorophore (fluoroscein vs A647) to be retained in gel, as well as an alternative imaging channel (Cy2 for fluorescein, Cy5 for A647). […] D. Kinetic SDS-PAGE fluorescence imaging experiment to determine Rha-AI-cARM/anti-23F antibody labeling kinetics using A647-cARM (8). cARM 8 (2–100 μM) was incubated with anti-23F antibody (2 μM) for up to 4 h. A representative fluorescence gel image is included corresponding to compound 8 (50 μM) incubated with either anti-23F antibody or isotype human IgG. Densitometry analysis with ImageJ was used to quantify relative band intensities. […] The error is calculated by alternative fits of initial rates data (all within the linear labeling range).
Next, we tested if cARM tool compounds can selectively label endogenous human polyclonal antirhamnose antibodies via ELISA (4 α-O rhamnose or 5 α-S rhamnose) (Figure 2B). cARMs (4, 5) and noncovalent analog ARMs (1, 2) were incubated with 2% human serum for 48 h followed by addition to a streptavidin-ELISA plate. Antibody recruitment to the plate surface was measured via the addition of HRP-conjugated anti-IgG or anti-IgM secondary antibody, followed by a chromogenic substrate. […] In the absence of a competitor, we observed robust absorbance signal in samples incubated with cARM. […]

[3] = biological target: prostate-specific membrane antigen (PSMA); conditions: cited from earlier work

Kd ([1]; 26.2 µM IgG, read-out: Kd): 29 µM
Kd ([1]; 52.5 µM IgG, read-out: Kd): 42 µM
Kd ([1]; 105 µM IgG, read-out: Kd): 62 µM
Kd ([1]; average of three IgG concentrations, read-out: Avg Kd): 44 ± 17 µM
Compound: C[C@@H]1O[C@H](SCc2cn(CCOCCNC(=O)OCCOCCOCCOCCOCCOCCOCCOCCNC(=O)CCCC[C@@H]3SC[C@@H]4NC(=O)N[C@@H]43)nn2)[C@H](O)[C@H](O)[C@H]1O [compound 3]
kon ([1]; 26.2 µM IgG): 19771 M⁻¹ s⁻¹
koff ([1]; 26.2 µM IgG): 0.576 s⁻¹
kon ([1]; 52.5 µM IgG): 11537 M⁻¹ s⁻¹
koff ([1]; 52.5 µM IgG): 0.481 s⁻¹
kon ([1]; 105 µM IgG): 6254 M⁻¹ s⁻¹
koff ([1]; 105 µM IgG): 0.3901 s⁻¹

Compound: C[C@@H]1O[C@@H](SCc2cn(CCc3cn(C(=O)OCCOCCOCCOCCOCCOCCOCCOCCNC(=O)CCCC[C@@H]4SC[C@@H]5NC(=O)N[C@@H]54)cn3)nn2)[C@H](O)[C@H](O)[C@H]1O [compound 5]
antibody binding signal, quench control [2]: significant antibody binding signal

Compound: glutamate urea [GU]
Kd [3]: < 0.01 µM

From PMC10683482, “Offsetting Low-Affinity Carbohydrate Binding with Covalency to Engage Sugar-Specific Proteins for Tumor-Immune Proximity Induction” (ACS Central Science, 2023)
